Laboratory results from patent US20100099719A1, “COMPOSITION AND METHOD FOR TREATING PROTEINURIA” (DIEREPHARMA, INC., priority 2008, published 2010).
Where two headings read alike, the source gives them in different places.

Legend:
p38 = assay: LPS-induced p38 activation in RAW264.7 macrophages (Western blot, phospho-p38); assay type: cell-based, mouse; conditions: RAW264.7 cells pretreated 100 and 500 μg/ml, 4 h; LPS 10 ng/ml, 30 min
Experimental: Mouse macrophage RAW264.7 cells were pretreated with AKF-PD (100 and 500 μg/ml, 4 h) or PFD (100 and 500 μg/ml, 4 h) and then exposed to LPS (10 ng/ml, 30 min). Total cell lysates were processed by SDS-PAGE and membranes blotted with a phosphospecific p38 and normalized with p38.
The MAPK family of proteins comprises of three-tiered cascades of Erk1/2, p38, and JNK. The p38 kinase is activated by phosphorylation of a conserved Thr-Gly-Tyr motif in the activation loop. The activated p38 is then able to phosphorylate a wide variety of targets in the cytoplasm and nucleus, resulting in cellular responses such as apoptosis, inflammation, and fibrosis. We first analyzed the anti-inflammatory properties of AKF-PD in p38 signaling in lipopolysaccharide (LPS)-stimulated mouse macrophages RAW264.7 cells. Cells are pre-treated with AKF-PD or pirfenidone (PFD) for 4 hours and then stimulated by treatment with LPS. […] No effects on total p38 protein levels were observed showing that AKF-PD and PFD have no effect on protein stability. […] The potential upstream targets for AKF-PD include upstream kinases MAPKK3 (MKK3) and MAPKK6 (MKK6).

TNF-α mRNA = assay: LPS-stimulated TNF-α mRNA synthesis in RAW264.7 macrophages (real time PCR); assay type: cell-based, mouse; conditions: LPS 10 ng/ml 20 h; for inhibition of LPS-stimulated TNF-α mRNA synthesis: dose of 500 μg/ml; for inhibition on LPS-stimulated TNF-α mRNA synthesis: pre-treated 4 h at 10, 100, 500 μg/ml
Experimental: Mouse macrophage RAW264.7 cells were pre-treated with AKF-PD or PFD for 4 hours at the following doses: 0, 10 μg/ml, 100 μg/ml, and 500 μg/ml. Cells are then stimulated by treatment with LPS at 10 ng/ml for 20 hours. Expression of TNF-α mRNA is assayed by a quantitative real time PCR analysis using the TaqMan PCR core reagent kit (Applied Biosystems). TNF-α gene expression in the control non-treated cells was taken as 1 and regarded as control. All the other values were expressed as fold increase of the control. The mouse beta actin gene was used as endogenous control. Each column with error bar represents the mean mRNA level±SD of duplicate samples. Statistical comparisons for all three AKF-PD doses relative to control indicate p<0.01; PFD at the doses of 100 and 500 μg/ml relative to control indicate P<0.01.
We next investigated the effect of AKF-PD on TNF-α transcription.

TNF-α = assay: LPS-stimulated TNF-α protein synthesis and secretion in RAW264.7 cells (ELISA); assay type: cell-based, mouse; conditions: LPS 100 ng/ml 8 h; for inhibition at 300 µg/mL: dose of 300 μg/ml
Experimental: RAW264.7 cells were pre-treated with AKF-PD for 4 hours at the following doses: 0, 30 μg/ml, 100 μg/ml, and 300 μg/ml. Cells were then stimulated by the treatment with LPS at 100 ng/ml for 8 hours. Cell lysate was prepared from the harvested cells. Media from the cell culture were collected, concentrated 10-fold. Both cell lysate (B) and media (A) were subjected to ELISA assay (OptEIA™) specific for mouse TNF-α according to the manufacturer's instructions (BD Biosciences). Each column with error bar represents the average of triplicate TNF-α assay results and the standard deviation (SD). Statistical comparisons for AKF-PD treated cells relative to the controls indicate P<0.001 for secreted levels (A) at all three doses; and P<0.01 for cellular levels (B) at doses of 100 and 300 μg/ml, respectively.
The effect of AKF-PD on TNF-α protein synthesis and secretion was analyzed in LPS-stimulated RAW264.7 cells. Cells were pretreated with AKF-PD and then stimulated by LPS. Both secreted and cellular levels of TNF-α protein were determined. […] Therefore, the exposure of RAW264.7 cells to AKF-PD exerted a significant and dose-dependent suppression of levels of both cell-associated and secreted TNF-α protein.

[1] = system: streptozotocin-induced diabetic rats; assay: Streptozotocin-induced diabetic nephropathy in rats; assay type: in vivo, Sprague-Dawley rats
Experimental: Diabetic kidney disease in the rat was induced by streptozotocin (STZ) to test the effectiveness of 5-methyl-2(1H)-pyridone (AKF-PD) in preserving kidney function by reducing the level of proteinuria.
Diabetic nephropathy was induced in Sprague-Dawley rats with a single intravenous injection of STZ (45 mg/kg). Streptozotocin was injected in a single dose of 45 mg/kg, i.v., to rats (Male Sprague-Dawley rats (200-250 g). Age-matched control rats received citrate buffer and were used in parallel with diabetic animals. Two days after STZ injection, plasma glucose levels were measured. Rats having plasma glucose levels>250 mg/dL after 4 weeks were selected for the study. Control and diabetic rats were divided into two groups, consisting of 6 animals each. AKF-PD was suspended in 0.5% sodium carboxy methylcellulose (CMC). From 4 to 8 weeks after the initial STZ injection, the first group of control animals received vehicle, and the second group received a suspension of AKF-PD (500 mg/kg per day) orally. Similarly, one group of diabetic rats received vehicle and the second group received AKF-PD (500 mg/kg per day). At the end of 8th week, rats were kept individually in metabolic cages for 24 h to collect urine for the measurements. Renal function was assessed by measuring plasma and urine levels of creatinine and urea and urine albumin excretion. Plasma glucose levels were also measured at 4 weeks and at the end of the experiment to investigate the effect of AKF-PD on glucose levels. Urinary proteins were measured by Bio-Rad protein assay (Bio-Rad, Hercules, Calif.). Blood urea nitrogen and creatinine levels were measured using Beckman analyzers (BUN Analyzer II, and Creatinine Analyzer II Beckman Instruments Inc., Brea, Calif.).

rat UUO model = assay: Unilateral ureteral obstruction (UUO) model, tubulointerstitial injury score; assay type: in vivo, SD rats; conditions: UUO rats; for Tubulointerstitial injury score (TIS): 500 mg/kg/d by gavage
Experimental: Kidney damage and fibrosis were induced by Unilateral Ureteral Obstruction in rat. The reno-protective effect of AKF-PD was evaluated in the rat UUO model.
Fixed tissues were dehydrated in graded alcohol and embedded in paraffin. Sections were stained with hematoxylin & eosin (HE) for general histology. Injury score was evaluated. On Day 7, the kidneys of rats subjected to ureteral obstruction developed a conspicuous tubulointerstitial injury characterized by tubular dilatation and atrophy, interstitial inflammation, and a marked interstitial fibrosis. The damage was more prominent on Day 15. Renal injury was ameliorated after treatments with AKF-PD as indicated by the lower tubulointerstitial injury scores and interstitial fibrosis expansion of these groups, with P<0.05 for all comparisons (Table 2).
Table 2. Comparison of histological scores for interstitial compartment. Eight weeks old male SD rats (180 g ˜220 g) were randomly divided into sham surgical group, disease model UUO group, and AKF-PD (500 mg/kg/d) group. […] The animals of the sham surgical group experienced the same surgical procedure except the ligation step. AKF-PD was administrated by gavage from one day prior to the procedure to 15 days post surgical procedure. Normal saline was administrated in a similar fashion to the rats in the groups of disease model and sham surgical. The animals were sacrificed 15 days after surgical procedure and their left kidney were removed for pathological (HE staining) examination. Histological scoring for interstitial compartment was done according to Radford's method (Predicting renal outcome in IgA nephropathy. J. Am. Soc. Nephrology, 1997; 8:199-207).

TGF-β = TGF-β protein expression in kidney of rat UUO model (Western blot, densitometry); assay type: in vivo; conditions: obstructed kidney
Description: A. Western analysis of TGF-β protein expression. Two rats were sacrificed from groups of control sham operated, UUO, and UUO+AKF-PD at day 7 and day 15. Total protein was extracted from the kidney samples and subjected to Western analysis of TGF-β. The protein loading was normalized with actin. Lane 1, control sham at day 7; lane 2, control sham at day 15; lane 3, UUO at day 7; lane 4, UUO+AKF-PD at day 7; lane 5, UUO at day 15; lane 6, UUO+AKF-PD at day 15. B. Comparison of the intensity of bands on a Western blot by densitometry. The bands were scanned by densitometer and expressed as a fold increase over control sham operated rat at day 7, which was taken as 1.
TGF-β is a pro inflammatory cytokine and its overproduction plays critical role in tissue fibrosis. Using UUO model, we analyzed the effect of AKF-PD on TGF-β protein expression by Western blot. […] Densitometry analyses of the intensity of the bands indicate that TGF-β protein expression in obstructed kidneys was increased by 4.9- and 6.5-fold than those in the Sham group on Days 7 and 15, respectively.

rat renal fibroblasts = conditions: in vitro; cited from earlier work
[2] = system: patients with focal segmental glomerulosclerosis; conditions: cited from earlier work
[3] = system: mild chronic anti-GBM nephritis in rats; conditions: rat model of nephritis; cited from earlier work
[4] = DN (diabetic) rats + AKF-PD 500 mg/kg per day p.o., 4 weeks, mean ± SEM (n = 6)

Q: Which results are given for Cc1ccc(=O)n(-c2cccc(F)c2)c1 [AKF-PD, 1-(3′-Fluorophenyl)-5-Methyl-2(1H)-Pyridone]?
A: LPS-induced p38 activation (phosphorylation) (p38): significantly blocked; total p38 protein levels (p38): No effects; inhibition of LPS-stimulated TNF-α mRNA synthesis (TNF-α mRNA): Approximately 50%; inhibition on LPS-stimulated TNF-α mRNA synthesis (TNF-α mRNA): dose-dependent inhibition; inhibition on TNF-α protein levels (TNF-α; 30, 100, 300 μg/ml pre-treatment 4 h): dose-dependent inhibition; inhibition at 100 µg/mL (TNF-α; Mus musculus, dose of 100 μg/ml, read-out: inhibition of secreted levels of TNF-α): 64%; inhibition at 300 µg/mL (TNF-α; Mus musculus, read-out: inhibition of cellular levels of TNF-α): ~50%; inhibition at 300 µg/mL (TNF-α; Mus musculus, read-out: inhibition of secreted levels of TNF-α): 89%; Urine output ([1]; DN (diabetic) rats + AKF-PD 500 mg/kg per day p.o., 4 weeks, 24 h urine, mean ± SEM (n = 6)): 15.25 ± 1.75 mL; Blood urea nitrogen [1, 4]: 18.88 ± 1.50 mg/dL; Serum creatinine [1, 4]: 0.75 ± 0.13 mg/dL; Urinary albumin excretion [1, 4]: 6.10 ± 0.23 mg/dL; renal dysfunction in diabetic rats ([1]; diabetic rats, 500 mg/kg per day from 4 to 8 weeks): significantly attenuated; Tubulointerstitial injury score (TIS) (rat UUO model; Day 7): 2.64 ± 0.79 #; Tubulointerstitial injury score (TIS) (rat UUO model; Day 15): 3.82 ± 0.43 #; renal injury (tubulointerstitial injury scores and interstitial fibrosis expansion) (rat UUO model; P<0.05): ameliorated; reduction of TGF-β protein expression (TGF-β; Day 7, UUO rats): 55%; reduction of TGF-β protein expression (TGF-β; Day 15, UUO rats): 71%; proliferation of rat renal fibroblasts (rat renal fibroblasts): inhibit the proliferation

Q: For Cc1ccc(=O)n(-c2ccccc2)c1 [PFD, pirfenidone, reference compound], which “LPS-induced p38 activation (phosphorylation)” value (p38) is on record?
A: significantly blocked

Q: What about the “total p38 protein levels” value (p38) of the same compound?
A: No effects

Q: And the “inhibition of LPS-stimulated TNF-α mRNA synthesis” value (TNF-α mRNA)?
A: Approximately 50%

Q: What about the “inhibition on LPS-stimulated TNF-α mRNA synthesis” value (TNF-α mRNA) of the same compound?
A: dose-dependent inhibition

Q: And the effect on proteinuria ([2]; clinical data, open-label trial)?
A: does not have any effect

Q: What about the “monthly deterioration in GFR (median)” value ([2]; with pirfenidone therapy, 18 patients, median of 13-month treatment, baseline period −0.61) of the same compound?
A: −0.45 ml/min per 1.73 m^2

Q: What about the urinary protein excretion [3] of the same compound?
A: caused a decline
